From the NIST ThermoML archive (doi:10.1016/j.jct.2017.04.015)

Assay: mn = molality of the nth substance listed, in mol/kg
Details: 101.3 kPa, Liquid; for speed of sound: Frequency=2 MHz, Linear variable-path acoustic interferometer; for mass density: Pycnometric method

CCN(CC)CCOC(=O)c1ccc(N)cc1.Cl [2-diethylaminoethyl p-aminobenzoate hydrochloride] + O
Details	mass density [kg/m3]	speed of sound [m/s]
288.15 K, m1 = 0.01	999.6	1467.5
288.15 K, m1 = 0.02	1000.1	1469.1
288.15 K, m1 = 0.0301	1000.6	1470.7
288.15 K, m1 = 0.04	1001.1	1472.3
288.15 K, m1 = 0.05	1001.6	1473.9
288.15 K, m1 = 0.055	1001.85	1474.7
288.15 K, m1 = 0.0599	1002.09	1475.4
288.15 K, m1 = 0.065	1002.34	1476.2
288.15 K, m1 = 0.0701	1002.6	1477
288.15 K, m1 = 0.0751	1002.85	1477.7
288.15 K, m1 = 0.0801	1003.1	1478.5
288.15 K, m1 = 0.0852	1003.35	1479.2
288.15 K, m1 = 0.0898	1003.58	1480
288.15 K, m1 = 0.0952	1003.85	1480.7
288.15 K, m1 = 0.1	1004.09	1481.4
298.15 K, m1 = 0.0098	997.52	1498.3
298.15 K, m1 = 0.0196	997.99	1499.9
298.15 K, m1 = 0.0297	998.49	1501.5
298.15 K, m1 = 0.0406	999.02	1503.2
298.15 K, m1 = 0.0492	999.44	1504.6
298.15 K, m1 = 0.0534	999.65	1505.3
298.15 K, m1 = 0.061	1000.02	1506.5
298.15 K, m1 = 0.0636	1000.15	1506.9
298.15 K, m1 = 0.0688	1000.4	1507.7
298.15 K, m1 = 0.0758	1000.74	1508.8
298.15 K, m1 = 0.0783	1000.86	1509.2
298.15 K, m1 = 0.0846	1001.17	1510.2
298.15 K, m1 = 0.09	1001.44	1511
298.15 K, m1 = 0.0951	1001.68	1511.7
298.15 K, m1 = 0.1003	1001.94	1512.5
308.15 K, m1 = 0.01	994.51	1521.4
308.15 K, m1 = 0.02	995	1523
308.15 K, m1 = 0.03	995.48	1524.6
308.15 K, m1 = 0.0401	995.97	1526.2
308.15 K, m1 = 0.0499	996.44	1527.8
308.15 K, m1 = 0.055	996.69	1528.6
308.15 K, m1 = 0.06	996.93	1529.4
308.15 K, m1 = 0.065	997.17	1530.1
308.15 K, m1 = 0.0698	997.4	1530.9
308.15 K, m1 = 0.075	997.65	1531.7
308.15 K, m1 = 0.0801	997.9	1532.5
308.15 K, m1 = 0.085	998.14	1533.2
308.15 K, m1 = 0.09	998.38	1534
308.15 K, m1 = 0.095	998.62	1534.7
308.15 K, m1 = 0.1	998.86	1535.4

[Cl-].[K+] [potassium chloride] + O
Details	mass density, 288.15 K [kg/m3]	mass density, 298.15 K [kg/m3]	mass density, 308.15 K [kg/m3]	speed of sound, 288.15 K [m/s]	speed of sound, 298.15 K [m/s]	speed of sound, 308.15 K [m/s]
m1 = 0.06	1002.26	1000.42	997.25	1467.4	1498.3	1522.2
m1 = 0.1	1003.48	1001.79	998.71	1469.6	1502.5	1525.1
